System: Plasmodium falciparum
Test: GSK_TCMDC: Inhibition of Plasmodium falciparum 3D7 in whole erythrocytes, using parasite LDH activity as an index of growth.
Format: functional, organism-based

SMILES | XC50 (Plasmodium falciparum, 3D7) [nM] | XC50 [nM]
CN(c1ccc(F)cc1)S(=O)(=O)c1ccc(Cl)c(C(=O)Nc2cccc(C#N)c2)c1 | 699 | 
Cc1nc(-c2cccc(Nc3nccc(NCC(O)c4ccccc4C)n3)c2)cs1 (stereo not given) | 890 | 
O=C(Nc1cc(C(F)(F)F)cc(C(F)(F)F)c1)Nc1ccc(Cl)c(Cl)c1 | 240 | 
CC(C)C(NC(=O)Cc1cccc2ccccc12)C(=O)Nc1cccc(C#N)c1 (stereo not given) | 656 | 
CCN1CCC(N(Cc2ccc(-c3ccc(Cl)cc3)cc2)C(=O)Cn2c(CCc3cccc(F)c3F)cc(=O)c3ccccc32)CC1 | 703 | 
CC1(C)NC(N)=NC(=N)N1OCCCOc1ccc([N+](=O)[O-])cc1 | 3.2 | 
O=C(N[C@H]1CCN(Cc2ccc(OCCN3CCNCC3)c3ccccc23)C1)c1ccc(Cl)c(Cl)c1 | 748 | 
Cc1nc(-c2ccc(C#N)cc2)sc1C(=O)NCCCCN1CCC(c2ccc3c(c2OCCO)CCCC3)CC1 | 850 | 
O=C(Nc1cccc(CN2CCCN(Cc3ccsc3)CC2)c1)c1ccc(-c2ccccc2)cc1 | 1340 | 
O=C(Nc1cccc(CN2CCCN(CC3CC3)CC2)c1)c1ccc(Cl)c(Cl)c1 | 1030 | 
CCOC(=O)c1ccc(N2CCN(c3cc(Cl)ccc3C)CC2)c(NC(=O)Nc2ccc(Cl)c(Cl)c2)c1 | 584 | 
CCOC(=O)CN1Cc2cc(NCc3ccc4ccc5nc(C)[nH]c(=O)c5c4c3)ccc2C1=O | 700 | 
COc1ccc2nccc([C@@H](O)CN3CCC(NCc4cc5ccccc5[nH]4)CC3)c2c1 | 1100 | 
CC1CCCN1Cc1cccc(-c2ccc(C(=O)NCCOc3ccccc3)s2)c1 (stereo not given) | 925 | 
CC(C)(C)Oc1ccc(CC2NC3(C(=O)N(Cc4ccc(C(C)(C)C)cc4)c4ccccc43)C3C(=O)N(c4ccc(Br)cc4)C(=O)C23)cc1 (stereo not given) | 717 | 
N=C(N)Nc1ccc(OCCCCCOc2ccc(NC(=N)N)c(Cl)c2)cc1Cl | 857 | 
N#Cc1cccc(CN2CCCN(c3ccc(NC(=O)c4cccs4)cc3)CC2)c1 | 809 | 
OCC(CO)(CO)NCc1ccc2c3c(cccc13)-c1ccccc1-2 | 1260 | 
Cn1nc(-c2cccc(CNC3CCc4ccccc43)c2)c2cnc(NC3CCCC3)nc21 (stereo not given) | 857 | 
C/C=C1\CN2CC[C@H]1C[C@H]2[C@H](O)c1ccnc2ccc(OC)cc12 |  | 219
Cc1cccc2nc(-c3ccc(-c4ccc(NC(=O)NC5CC5c5ccccc5)cc4)cc3)[nH]c12 (stereo not given) | 876 | 
Cc1cc(C)n2nc(C(=O)Nc3cc(C(F)(F)F)ccc3N3CCOCC3)nc2n1 | 119 | 
N=c1cc(C=Cc2ccc(O)cc2)[nH]c2ccccc12 | 993 | 
O=C(CCCCCNC(=O)c1ccc(O)c(-c2ccc(Cl)c(Cl)c2)c1)NC1CCCCCC1 | 947 | 

SMILES | XC50 (Plasmodium falciparum, 3D7) [nM] | XC50 [nM]
S=C(NCCc1ccc(Cl)cc1)NC1CCC(CN2CCC(c3c[nH]c4ccccc34)CC2)CC1 (stereo not given) | 703 | 703
CN(C)CC(=O)Nc1cccc(Nc2nccc(NCC(O)c3ccccc3)n2)c1 (stereo not given) | 983 | 
CN(C)Cc1ccc(-c2cc3c(Nc4ccc(OCc5cccc(F)c5)c(Cl)c4)ncnc3s2)[nH]1 | 824 | 
Cc1ccc(O)cc1Nc1ccnc2cc(-c3ccc(CN4CCCCC4)o3)ccc12 | 166 | 
O=C(C=Cc1ccc(-c2ccccc2)cc1)N1CCC(CCN2CCC(c3c[nH]c4ccccc34)CC2)CC1 | 1120 | 
CCCCCCOc1ccc2ccccc2c1CNCCCCCCNCc1c(OCCCCCC)ccc2ccccc12 | 1060 | 
CC(=O)Nc1nc(C(=O)Nc2cccc(-c3ccc(-c4nc5cccc(C)c5[nH]4)cc3)c2)cs1 | 232 | 
Oc1ccc(C2CNCCc3c2cc(O)c(OCc2ccccc2)c3Cl)cc1 (stereo not given) | 716 | 
CCCN(CCC)CCOc1ccc(C(O)(C#CC(O)(c2ccc(OCCN(CCC)CCC)cc2)c2cccc(Cl)c2)c2cccc(Cl)c2)cc1 (stereo not given) | 790 | 
O=C(NCCCCN1CCC(c2ccc3c(c2OCCO)CCCC3)CC1)c1sc(-c2ccc(C(F)(F)F)cc2)nc1CO | 1050 | 
COc1cc2nc(NCCC(C)C)n3nc(-c4ccccc4)nc3c2cc1OC | 417 | 
Nc1nc(N)c2c(ccc3c2ccn3Cc2ccc(-c3ccccc3)cc2)n1 | 48.3 | 
CC(C)CCNC(=N)Nc1ccc(OCCCOc2ccc(NC(=N)NCCC(C)C)cc2)cc1 | 200 | 
Cc1cccc2nc(-c3ccc(-c4cccc(CNCCCN5CCCC5=O)c4)s3)[nH]c12 | 590 | 
CC[C@H]1CN(CCCC(=O)c2ccccc2)CC[C@H]1CCCc1ccnc2ccc(OC(=O)c3ccccc3)cc12 | 832 | 
O=C(N[C@@H](Cc1ccccc1)C(=O)NCc1cccc(C(F)(F)F)c1)c1ccc(O)c(-c2ccc(Cl)c(Cl)c2)c1 | 696 | 
O=C(CCOc1ccccc1)NCC1CCCO1 (stereo not given) | 1000 | 
COc1cc(C(=O)NC2CCN(Cc3ccccc3)CC2)ccc1-c1cc2cc(Cl)c(Cl)cc2[nH]1 | 227 | 
O=C(Nc1ccc(Oc2ccccc2)cc1)N(Cc1ccc(-c2cccc(CN3CCNCC3)c2)cc1)C1CCN(Cc2ccccc2)CC1 | 881 | 
O=C(Nc1ccc(OC2CCN(Cc3ccccc3)CC2)c(Cl)c1)c1ccsc1 | 900 | 
CCc1n[nH]c(C(=O)NC2CCN(CC3(c4ccc(OC)cc4)CCCCC3)CC2)c1C | 892 | 
CCn1c(=O)c(C(=O)Nc2cc(Cl)c(OC)cc2OC)nc2ccccc21 | 244 | 
CCCOc1cc(O)c(-c2[nH]nc(C)c2Oc2ccccc2)cc1CC | 1070 | 
CC[C@H]1CN2CCc3cc(OC)c(OC)cc3[C@@H]2C[C@@H]1CC1=NCCc2c1[nH]c1ccc(OCc3ccccc3)cc21 | 772 | 

SMILES | XC50 (Plasmodium falciparum, 3D7) [nM] | XC50 [nM]
CC(C)NCc1ccc(-c2ccc(NC(=O)c3ccc(Cl)cc3)cc2)cc1 | 910 | 
Oc1ccc2nc(NCCCc3ccccc3)nc(NCCCc3ccccc3)c2c1 | 398 | 
CCOc1cc(CC)ccc1C1CCN(CCCCNC(=O)c2ccc(NC(=O)c3ccc(C#N)cc3)cc2)CC1 | 504 | 
Cc1ccc(C(=O)NCC2CCN(c3ccc(C(F)(F)F)cc3NC(=O)c3ccco3)CC2)cn1 | 782 | 
Cc1cc(C(=O)Nc2ccc3c(c2)CCN3C2CCN(Cc3ccc(O)cc3)C2)no1 (stereo not given) | 774 | 
Cc1ccccc1Cc1cccc(/N=C(\N)Nc2ccc(Cl)cc2)n1 | 676 | 
Nc1nccc(-c2ccc3c(/C=C/c4ccccc4)cnc(N)c3c2)n1 | 621 | 
COc1cc(C=CC(=O)N2CCC(CN3CCC(c4c[nH]c5ccccc45)CC3)CC2)cc(OC)c1 | 804 | 
CC(C)NCc1cccc(-c2cccc(NC(=O)c3cccc(Cl)c3)c2)c1 | 592 | 
O=C(Cc1ccc(NC(=O)c2ccc(O)c(-c3ccc(Cl)c(Cl)c3)c2)cc1)NCCN1CCOCC1 | 806 | 
CC[C@@]1(O)C(=O)OCc2c1cc1n(c2=O)Cc2c-1nc1cc3c(cc1c2CN1CCOCC1)OCO3 | 965 | 
O=C(/C=C/c1c(Cl)cccc1Cl)NC1CCC(CN2CCC(c3c[nH]c4ccncc34)CC2)CC1 (stereo not given) | 158 | 
COc1ccc2nccc(NCC3(O)CCN(CCc4ccc5c(c4)OCCO5)CC3)c2n1 | 597 | 
CCc1ccc(C2CCN(CCCCNC(=O)c3ccc(NC(=O)c4ccc(Cl)cc4)cc3)CC2)c(OC)c1 | 785 | 
O=C(/C=C/c1ccc(Cl)c(Cl)c1)N1CCC(CCN2CCC(c3c[nH]c4cnccc34)CC2)CC1 | 119 | 
N#Cc1ccc2[nH]cc(C(=O)CCCCCN(Cc3ccccc3)Cc3ccccc3)c2c1 | 785 | 
c1cncc(CNc2ncc(-c3ccsc3)c(-c3nccs3)n2)c1 | 1380 | 
COc1cccc(CNC(=O)c2cnc(N3CCN(c4ccncc4)CC3)c(Cl)c2)c1 | 1150 | 
CCOc1ccccc1CCNC(C)Cc1ccc(C(=O)Nc2ccc(CC(C)NCCc3cccc(Cl)c3)cc2)cc1 (stereo not given) | 539 | 
COc1ccc(CCN(C)CCc2ccc(NC(=O)c3cccc4c(=O)c5ccccc5sc34)cc2)cc1 | 859 | 
COc1ccccc1N1CCN(Cc2c(NC(C)=O)sc(C)c2C)CC1 | 425 | 
O=S(=O)(Nc1cccc(F)c1CNCc1ccccn1)c1ccc(Cl)c(Cl)c1 | 889 | 
CC[C@H]1CN2CC[C@H]1C[C@@H]2[C@@H](OC(=O)c1ccc(Cl)cc1)c1ccnc2ccc(OC)cc12 | 922 | 
CCN(C)CCCn1c(N(C)C)nc2cc(-n3cnc4cc(-c5ccc(Cl)cc5)sc4c3=O)ccc21 | 1090 | 

SMILES | XC50 (Plasmodium falciparum, 3D7) [nM] | XC50 [nM]
CCCc1cc(C(=O)N[C@@H](Cc2ccccc2)[C@H](O)CNC(C)(C)c2cccc(OC)c2)c(F)c(N2CCCC2=O)c1 | 95.7 | 
Cc1cc(-c2cccc(CNC3CCCC3)c2)ccc1S(=O)(=O)NCCN1CCCC1 | 1240 | 
CC(=O)Nc1cccc(C(=O)Nc2cccc(-c3cccc(-c4nc5cc(F)ccc5[nH]4)c3)c2)c1 | 549 | 
O=C(Nc1ccc(C(F)(F)F)cc1)Nc1cccc([N+](=O)[O-])c1 | 865 | 
CCCOC(=O)C1=C(C)NC2=C(C(=O)CC(c3ccc(OC)c(OC)c3)C2)C1c1cccc(O)c1 (stereo not given) | 121 | 
COc1ccc(Nc2nc(NCc3ccco3)c3ccccc3n2)cc1 | 740 | 
O=C(Nc1cn(-c2ccc(OCc3cccc(F)c3)c(Cl)c2)c2ncncc12)c1ccncc1 | 171 | 
CCCNC(=O)C1CCN(C(c2ccc(Cl)cc2)c2ccc(Cl)cc2)CC1 | 479 | 
CN(C)c1ccc(N2C(N)=NC(N)=NC23CCCC3)cc1 | 935 | 
CN1CC=C(c2c[nH]c3ccc(OCc4ccccc4)cc23)CC1 | 718 | 
C=CC[C@H](C[C@H](O)[C@H](Cc1ccccc1)NC(=O)c1ccc(-n2cccn2)cc1)C(=O)NC1CCCCC1 | 810 | 
Cc1cc(-c2cccc(CNC3CCN(C)CC3)c2)ccc1S(=O)(=O)NCCN1CCCC1 | 977 | 
Cc1cccc2nc(-c3ccc(-c4ccc(CNCc5ccc(S(C)(=O)=O)cc5)cc4)cc3)[nH]c12 | 752 | 
COC(=O)c1c(C#N)c(OC)cc(O)c1CSC[C@H](Nc1nc(-c2ccc([N+](=O)[O-])cc2)cs1)C(=O)NCCN1CCCCC1 | 1060 | 
COc1cc(C)nc2ccc(NC(=O)Nc3ccc4nc(C)cc(OC)c4c3)cc12 | 548 | 
CC(C)c1sc(N2CCN(C)CC2)nc1C(=O)Nc1cccc2c1CCCC2 | 1280 | 
CC(C)CNCc1ccc(-c2ccc(CN(C(=O)NC3CCCCC3)C3CCN(Cc4ccccc4)CC3)cc2)cc1 | 785 | 
CCCc1ccc(NC(=O)c2cccc(CN3CCCN(Cc4cccc(O)c4)CC3)c2)cc1 | 748 | 
Cc1cccc(CNc2nc(C)cc(N[C@@H](Cc3ccccc3)C(=O)NC3CCCC3)n2)c1 | 653 | 
O=C(Nc1ccc2c(c1)CCN(C1CCC1)CC2)c1ccc(-n2ccnc2)cn1 | 373 | 
COc1ccc(Cn2ncc3c4c(N)nc(N)nc4ccc32)cc1OC | 3.2 | 
COc1ccc(C(=O)N2CCC(CN3CCOC(c4ccccc4)(c4ccccc4)C3)CC2)cc1 | 171 | 
